Test results: the supplement of paper PMC13380429

Tests used:
Conditions in all cases: 72 h
U2OS [1] = test: cell viability relative to DMSO; higher = less toxic
Caco-2 [2] = test: as above
HepG2 [3] = test: as above
Calu-3 [4] = test: as above
Vero E6 [5] = test: as above
U2OS [6] = test: drug sensitivity score (DSS) for viability; higher = more toxic; extreme values may be limits of the assay
Caco-2 [7] = test: as above
HepG2 [8] = test: as above
Calu-3 [9] = test: as above
Vero E6 [10] = test: as above
U2OS [11] = test: relative viability EC50 (midpoint between 100% and the lowest measured viability); higher = less toxic
Caco-2 [12] = test: as above
HepG2 [13] = test: as above
Calu-3 [14] = test: as above
Vero E6 [15] = test: as above

| SMILES | cell viability (U2OS [1]; 1 nM) [%] | cell viability (U2OS [1]; 10 nM) [%] | cell viability (U2OS [1]; 100 nM) [%] | cell viability (U2OS [1]; 1000 nM) [%] | cell viability (U2OS [1]; 10000 nM) [%] | cell viability (Caco-2 [2]; 1 nM) [%] | cell viability (Caco-2 [2]; 10 nM) [%] | cell viability (Caco-2 [2]; 100 nM) [%] | cell viability (Caco-2 [2]; 1000 nM) [%] | cell viability (Caco-2 [2]; 10000 nM) [%] | cell viability (HepG2 [3]; 1 nM) [%] | cell viability (HepG2 [3]; 10 nM) [%] | cell viability (HepG2 [3]; 100 nM) [%] | cell viability (HepG2 [3]; 1000 nM) [%] | cell viability (HepG2 [3]; 10000 nM) [%] | cell viability (Calu-3 [4]; 1 nM) [%] | cell viability (Calu-3 [4]; 10 nM) [%] | cell viability (Calu-3 [4]; 100 nM) [%] | cell viability (Calu-3 [4]; 1000 nM) [%] | cell viability (Calu-3 [4]; 10000 nM) [%] | cell viability (Vero E6 [5]; 1 nM) [%] | cell viability (Vero E6 [5]; 10 nM) [%] | cell viability (Vero E6 [5]; 100 nM) [%] | cell viability (Vero E6 [5]; 1000 nM) [%] | cell viability (Vero E6 [5]; 10000 nM) [%] | drug sensitivity score (U2OS [6]) | drug sensitivity score (Caco-2 [7]) | drug sensitivity score (HepG2 [8]) | drug sensitivity score (Calu-3 [9]) | drug sensitivity score (Vero E6 [10]) | relative viability EC50 (U2OS [11]) [µM] | relative viability EC50 (Caco-2 [12]) [µM] | relative viability EC50 (HepG2 [13]) [µM] | relative viability EC50 (Calu-3 [14]) [µM] | relative viability EC50 (Vero E6 [15]) [µM] |
| --- | --- | --- | --- | --- | --- | --- | --- | --- | --- | --- | --- | --- | --- | --- | --- | --- | --- | --- | --- | --- | --- | --- | --- | --- | --- | --- | --- | --- | --- | --- | --- | --- | --- | --- | --- |
| CC(C)C(=O)c1c(C(C)C)nn2ccccc12 [ibudilast] | 94.6 | 102 | 97.4 | 104 | 104 | 91.2 | 89.9 | 93.3 | 102 | 107 | 94.5 | 101 | 109 | 88.8 | 99.2 | 95.7 | 94.1 | 93 | 104 | 107 | 96.8 | 97.4 | 98.9 | 94.7 | 103 | 0 | 0 | 0 | 0 | 0 | > 10 | > 10 | > 10 | > 10 | > 10 |
| COCC(=O)Nc1c(I)c(C(=O)NCC(O)CO)c(I)c(C(=O)N(C)CC(O)CO)c1I (stereo not given) [iopromide] | 99 | 101 | 99.1 | 100 | 95.1 | 93.6 | 101 | 93.7 | 98.4 | 102 | 98 | 89.1 | 89.1 | 85.2 | 95.6 | 110 | 104 | 93.1 | 94.9 | 96.1 | 100 | 104 | 93.9 | 94.9 | 104 | 0 | 0 | 0 | 0 | 0 | > 10 | > 10 | > 10 | > 10 | > 10 |
| CCOC(=O)C1=C(C)NC(C)=C(C(=O)OCC)C1c1ccccc1/C=C/C(=O)OC(C)(C)C [lacidipine] | 96.6 | 95.2 | 98.5 | 92.1 | 97.5 | 97.4 | 91 | 90.2 | 84.7 | 79 | 96.2 | 102 | 96.8 | 114 | 91.9 | 97 | 89.8 | 106 | 93 | 91 | 92 | 99.4 | 89.7 | 99.6 | 106 | 0 | 2.5 | 0 | 0 | 0 | > 10 | > 10 | > 10 | > 10 | > 10 |
| N#C/C(=C1/SCC(c2ccccc2Cl)S1)n1ccnc1 (stereo not given) [lanoconazole] | 99.1 | 99.9 | 97.4 | 96.8 | 89.8 | 96.6 | 106 | 99.7 | 101 | 102 | 93.3 | 95.5 | 99.9 | 97.6 | 81.6 | 96.9 | 103 | 103 | 108 | 86.6 | 100 | 99.1 | 95.2 | 92.5 | 94.9 | 0 | 0 | 0.8 | 0 | 0 | > 10 | > 10 | > 10 | > 10 | > 10 |
| CCC(=O)O[C@@](Cc1ccccc1)(c1ccccc1)[C@@H](C)CN(C)C [levopropoxyphene] | 104 | 101 | 101 | 98.8 | 100 | 99.3 | 103 | 98.3 | 100 | 102 | 94.3 | 97.1 | 96.4 | 94.7 | 89.4 | 104 | 90.1 | 94.7 | 102 | 104 | 100 | 100 | 96 | 101 | 95.4 | 0 | 0 | 0 | 0 | 0 | > 10 | > 10 | > 10 | > 10 | > 10 |
| CCOC(=O)Nc1nc2ccccc2[nH]1 [lobendazole] | 97.1 | 96.1 | 98.2 | 94.8 | 99.7 | 97.9 | 91.6 | 96.4 | 109 | 95.5 | 94.6 | 113 | 104 | 111 | 98.9 | 100 | 106 | 102 | 98.4 | 95.9 | 96.9 | 101 | 87.6 | 103 | 103 | 0 | 0 | 0 | 0 | 0 | > 10 | > 10 | > 10 | > 10 | > 10 |
| CC(C(=O)O)c1ccc(CC2CCCC2=O)cc1 (stereo not given) [loxoprofen] | 108 | 92.7 | 98.3 | 94.8 | 96.9 | 98.6 | 90 | 97.1 | 88.1 | 96 | 92.1 | 104 | 97 | 108 | 94.3 | 101 | 110 | 104 | 108 | 93.6 | 106 | 97.4 | 98.4 | 92.8 | 94.2 | 0 | 0 | 0 | 0 | 0 | > 10 | > 10 | > 10 | > 10 | > 10 |
| O=C1CCC[C@@H]2[C@H]3C[C@@H](CN12)[C@@H]1CCCCN1C3 [lupanine] | 101 | 96.2 | 98.6 | 94 | 100 | 103 | 92.8 | 90.4 | 87.2 | 91.4 | 99.4 | 95.7 | 93 | 110 | 93.7 | 87.2 | 96.8 | 99.5 | 95.5 | 94.4 | 92.1 | 97.9 | 93.8 | 98.1 | 95.7 | 0 | 1.8 | 0 | 0 | 0 | > 10 | > 10 | > 10 | > 10 | > 10 |
| N=C(N)NC(=N)Nc1cccc(Cl)c1 [m-chlorophenylbiguanide] | 94.3 | 98.9 | 103 | 95.9 | 101 | 101 | 92.2 | 100 | 101 | 97.1 | 112 | 106 | 102 | 105 | 99.2 | 108 | 94.7 | 106 | 98 | 116 | 100 | 101 | 95.9 | 101 | 96.9 | 0 | 0 | 0 | 0 | 0 | > 10 | > 10 | > 10 | > 10 | > 10 |
| O=C(O)C[C@H](O)C(=O)O [malic-acid] | 105 | 101 | 103 | 97.6 | 101 | 93 | 91.8 | 99 | 91 | 99.8 | 101 | 95 | 94.6 | 95.2 | 95 | 102 | 108 | 92.3 | 95.2 | 95.2 | 98.1 | 107 | 96.5 | 100 | 95.5 | 0 | 0 | 0 | 0 | 0 | > 10 | > 10 | > 10 | > 10 | > 10 |
| CC(=O)O[C@]1(C(C)=O)CC[C@H]2[C@@H]3C[C@H](C)C4=CC(=O)CC[C@]4(C)[C@H]3CC[C@@]21C [medroxyprogesterone-acetate] | 97.1 | 99 | 97 | 96.2 | 96.5 | 92.6 | 103 | 94.5 | 101 | 95.8 | 110 | 103 | 99.1 | 95.1 | 97.3 | 99.8 | 106 | 95.6 | 101 | 103 | 96.6 | 97.9 | 100 | 98.3 | 98.2 | 0 | 0 | 0 | 0 | 0 | > 10 | > 10 | > 10 | > 10 | > 10 |
| C[C@H]1C[C@@H]2[C@H]([C@@H](O)C[C@@]3(C)[C@H]2CC[C@]3(O)C(=O)CO)[C@@]2(C)C=CC(=O)C=C12 [methylprednisolone] | 102 | 97.9 | 91.4 | 98.9 | 95.2 | 96 | 108 | 90.3 | 99.3 | 98.4 | 109 | 107 | 103 | 98.5 | 104 | 105 | 102 | 99.3 | 99.6 | 106 | 104 | 103 | 96.6 | 106 | 101 | 0 | 0 | 0 | 0 | 0 | > 10 | > 10 | > 10 | > 10 | > 10 |
| NC(=O)c1ncn([C@@H]2O[C@H](CO)[C@@H](O)[C@H]2O)c1O [mizoribine] | 101 | 103 | 99.6 | 96.3 | 99.1 | 93.8 | 97.7 | 94.7 | 97.1 | 97.6 | 112 | 100 | 110 | 96.2 | 106 | 104 | 101 | 95.3 | 102 | 88.4 | 101 | 103 | 99.1 | 97.8 | 101 | 0 | 0 | 0 | 0 | 0 | > 10 | > 10 | > 10 | > 10 | > 10 |
| CCOc1cc(N)c(Cl)cc1C(=O)NCC1CN(Cc2ccc(F)cc2)CCO1 (stereo not given) [mosapride] | 101 | 95.9 | 99 | 95.9 | 103 | 89.6 | 93.4 | 99.9 | 96.1 | 100 | 95.4 | 99.7 | 98.8 | 98.3 | 101 | 95.7 | 87.4 | 105 | 97.6 | 106 | 99.1 | 102 | 101 | 94.5 | 98.3 | 0 | 0 | 0 | 0 | 0 | > 10 | > 10 | > 10 | > 10 | > 10 |
